≈ marks a conversion by molar mass, not a printed value. Where “and” joins values, the source holds several entries; their conditions need not be identical. Identical values can stand only once. Like-named read-outs stand apart in the source and are kept apart here.
Assays:
[1] = test system: chloroquine-sensitive P. falciparum 3D7A strain; assay: In vitro growth of P. falciparum 3D7A, 3H-hypoxanthine uptake (Example 15); type: cell-based, Plasmodium falciparum; conditions: for Percentage inhibition of 3H-hypoxanthine uptake (mean ± SEM): title: percentage inhibition of 3H-hypoxanthine uptake
L. donovani = L. donovani infection in hamsters (Example 9); type: in vivo, syrian golden hamsters (Mesocricetus auratus); conditions: i.p. 10 mg per kg two times per day for 7 days
human monocytes = assay: Zymosan-enhanced chemiluminescence, monocytes; type: cell-based; conditions: Monocyte, read-out: percentage inhibition of chemiluminescence response to opsonized zymosan (mean ± SEM)
Procedure: Chemiluminescence. Monocytes were prepared from heparinized blood by metrizoate sodium-Ficoll (the same as lymphocyte proliferation). Polymorphonuclear leucocytes (PMN) were prepared from heparinized blood by dextran sedimentation and metrizoate sodium-Ficoll separation. Remaining erythrocytes were removed by hypotonic lysis. A zymosan-enhanced chemiluminescence assay was used. The assay was performed in a total volume of 5.5 ml at ambient temperature in glass scintillation vials. A Beckman L 8000 scintillation counter (placed under air-conditioned, thermostat controlled, 21±1° C. conditions) was used in the out-of-coincidence mode A 1.1 ml portion of PMN or monocyte suspension (1×10^6 cells per ml) was pre-incubated with 1.1 ml of various concentrations of licochalcone A for 30 min at 37° C. in a rotor at 20 rpm Luminol (5-amino-2,3-dihydro-1,4-phatalazinedione) obtained from Sigma Chemical Co., St Louis, Mo., U.S.A., was maintained as a stock solution of 10 mg/ml in NaOH (0.1 N) and diluted in Krebs-Ringer solution immediately before use. Each vial contained 5×10^5 pre-incubated PMN or monocyte, 4 mg of opsonized zymosan (Sigma), 50 μl of luminol solution, and 4.45 ml of Krebs-Ringer solution containing 5 mM glucose. The final concentration of luminol in the assay mixture was 5×10^−8m.

[2] = Plasma concentration and half live in mice after i.p. injection, HPLC (Example 25); type: in vivo
Procedure: (§1) Serum or plasma was diluted with one part of acetonitrile, left for 15 min at 4° C., and centrifugated for 3 min at 10,000 g. An aliquot of the supernatant was chromatographed at 37° C. by HPLC over Spherisorb ODS-2 (5 μm, 120×4.5 mm, Phase Separation LTD, UK) using acetonitrile aqueous acetic acid, 2%, (1:1) as an eluent, flow rate 1.5 ml/min, and UV detection (370 nm and 254 nm).
Standards. Standards containing 14.68 μg/ml, 4.90 μg/ml, and 0.45 μg/ml plasma were freshly prepared every day. The standards were wrapped in tinfoil to avoid light catalyzed isomerization.
A solution of 2,4dimethylnitrobenzene (0.20 μl/ml) was used as an internal standard.
Licochalcone A (10 mg/kg mouse≈200 μg/mouse) was injected i.p. into mice. The mice were sacrificed and bleeded after 15, 30, 60, 120, 240 and 480 min. The plasma was obtained by centrifugation. 100 μl of plasma was added to 100 μl of the solution of the internal standard and the mixture left for 30 min. The mixture was centrifuged for 5 min at 10,000 g and 20 μl of the clear supernatant was analyzed by HPLC (Example 23).

Strain = H37RV = assay: MIC with and without 10% human serum; type: cell-based; conditions: for MIC: Mycobacterium tuberculosis, H37RV
[3] = Serum concentration in rabbits after intravenous administration (Example 20); type: in vivo; conditions: rabbit
Procedure: Number of rabbits: 1 rabbit for each group
Dose: 20 mg per kg body weight
Route: Intravenously, administered once
Samples: Samples were drawn from each rabbit twice.
as §1

L. micdadei = assay: microbe, parasite or virus in culture; type: cell-based, Legionella micdadei
[4] = test system: P. yoelii (strain not characterized); assay: P. yoelii (strain not characterized) infection in mice, parasitemia, drug i.p. (Example 16); type: in vivo, BALB/c mice; conditions: 5 mg per kg twice daily for 8 days
Streptococcus pneumonia = assay: MIC, macrodilution (Example 17); type: cell-based; conditions: Streptococcus pneumoniae; 1 strain
M. avium = assay: Radiometric MIC (Example 19); type: cell-based

C=CC(C)(C)c1cc(/C=C/C(=O)c2ccc(O)cc2)c(OC)cc1O [Licochalcone A, licochalcone A]
IC50 ([1]; Plasmodium falciparum, read-out: concentration in which growth was retarded by 50%): 0.5 to 1 µg/mL (≈ 1.48 to 2.96 µM)
Percentage inhibition of 3H-hypoxanthine uptake (mean ± SEM) ([1]; 0.1 μg/ml): 15.0 ± 3.0%
Percentage inhibition of 3H-hypoxanthine uptake (mean ± SEM) ([1]; 0.5 μg/ml): 39.0 ± 6.0%
Percentage inhibition of 3H-hypoxanthine uptake (mean ± SEM) ([1]; 1 μg/ml): 69.0 ± 4.0%
Percentage inhibition of 3H-hypoxanthine uptake (mean ± SEM) ([1]; 5 μg/ml): 98.0 ± 0.001%
Percentage inhibition of 3H-hypoxanthine uptake (mean ± SEM) ([1]; 10 μg/ml): 98.0 ± 0.0001%
parasite load in the liver and the spleen (L. donovani): reduced to almost undetectable levels
inhibition at 1 µg/mL (human monocytes; 1 μg/ml): 8.2 ± 3.3%
inhibition at 2 µg/mL (human monocytes; 2 μg/ml): 7.8 ± 6.5%
inhibition at 5 µg/mL (human monocytes; 5 μg/ml): 24.8 ± 5.3%
inhibition at 10 µg/mL (human monocytes; 10 μg/ml): 37.9 ± 3.1%
inhibition at 20 µg/mL (human monocytes; 20 μg/ml): 56.5 ± 3.8%
plasma concentration ([2]; 10 mg/kg i.p., after 120 min): below det. limit
plasma concentration ([2]; 10 mg/kg i.p., after 240 min): below det. limit
plasma concentration ([2]; 10 mg/kg i.p., after 480 min): below det. limit
metabolites in mouse plasma ([2]; HPLC): Three metabolites have been detected
concentration at 15 min ([2]; mouse, plasma, intraperitoneal, 10 mg/kg i.p., after 15 min): 1330 ng/mL
concentration at 30 min ([2]; mouse, plasma, intraperitoneal, 10 mg/kg i.p., after 30 min): 280 ng/mL
concentration at 60 min ([2]; mouse, plasma, intraperitoneal, 10 mg/kg i.p., after 60 min): 140 ng/mL
increase of MIC when supplemented with 10% of serum (Strain = H37RV): 8 fold
MIC (Strain = H37RV; read-out: MIC+serum): 40 µg/mL (≈ 118 µM)
MIC (Strain = H37RV; read-out: MIC−serum): 5 µg/mL (≈ 14.8 µM)
concentration at 24 h ([3]; 24 hours after intravenous 20 mg per kg, detection limit): < 50 ng/mL
concentration at 1 h ([3]; one hour following intravenous 20 mg per kg): 350 ng/mL
MIC (L. micdadei; Fluoribacter gormanii, read-out: MIC-values, Legionella gormanii and the 4 L. micdadei isolates): 15 to 500 µg/mL (≈ 44.3 to 1480 µM)
MIC (L. micdadei; Legionella micdadei, L. micdadei (Bari)): 60 µg/mL (≈ 177 µM)
MIC (L. micdadei; Legionella micdadei, L. micdadei (Detroit)): 15 µg/mL (≈ 44.3 µM)
MIC (L. micdadei; Legionella micdadei, L. micdadei (F 1433)): 60 µg/mL (≈ 177 µM)
MIC (L. micdadei; Legionella micdadei, L. micdadei, 1 strain): 500 µg/mL (≈ 1480 µM)
Parasitemia, mean of 3 mice ([4]; D + 1): 0.03%
Parasitemia, single mice ([4]; D + 1): 0.05% and 0.03% and 0.02%
Parasitemia, mean of 3 mice ([4]; D + 2): 0.2%
Parasitemia, single mice ([4]; D + 2): 0.5% and 0.05% and 0.01%
Parasitemia, mean of 3 mice ([4]; D + 3): 1.0%
Parasitemia, single mice ([4]; D + 3): 2.0% and 0.5%
Parasitemia, mean of 3 mice ([4]; D + 4): 2.5%
Parasitemia, single mice ([4]; D + 4): 4.0% and 1.5% and 2.0%
Parasitemia, mean of 3 mice ([4]; D + 5): 2.5%
Parasitemia, single mice ([4]; D + 5): 4.0% and 1.5% and 2.0%
Parasitemia, mean of 3 mice ([4]; D + 6): 2.3%
Parasitemia, single mice ([4]; D + 6): 4.5% and 2.0% and 1.0%
Parasitemia, mean of 3 mice ([4]; D + 7): 2.2%
Parasitemia, single mice ([4]; D + 7): 4.0% and 1.5% and 1.0%
Parasitemia, mean of 3 mice ([4]; D + 8): 2.3%
Parasitemia, single mice ([4]; D + 8): 4.0% and 1.5%
Parasitemia, mean of 3 mice ([4]; D + 9): 2.2%
Parasitemia, single mice ([4]; D + 9): 4.0% and 1.0% and 1.5%
Parasitemia, mean of 3 mice ([4]; D + 11): 1.7%
Parasitemia, single mice ([4]; D + 11): 2.0% and 1.0%
Parasitemia, mean of 3 mice ([4]; D + 12): 1.7%
Parasitemia, single mice ([4]; D + 12): 2.0% and 1.0%
Parasitemia, mean of 3 mice ([4]; D + 14): 0.7%
Parasitemia, single mice ([4]; D + 14): 1.0% and 0.0%
Parasitemia, mean of 3 mice ([4]; D + 16): 0.03%
Parasitemia, single mice ([4]; D + 16): 0.0% and 0.1%
Parasitemia, mean of 3 mice ([4]; D + 18): 0.0%
Parasitemia, single mice ([4]; D + 18): 0.0%
Parasitemia, mean of 3 mice ([4]; D + 20): 0.0%
Parasitemia, single mice ([4]; D + 20): 0.0%
Parasitemia, mean of 3 mice ([4]; D + 21): 0.0%
Parasitemia, single mice ([4]; D + 21): 0.0%
MIC (Streptococcus pneumonia): 4 µg/mL (≈ 11.8 µM)
meanMIC (M. avium; AIDS patients, n=4): > 80 µg/mL
MIC (M. avium; Mycobacterium avium, read-out: MIC, all M. avium/intracellular strains): ≥ 20 µg/mL
meanMIC (M. avium; non AIDS patients, n=7): > 80 µg/mL
